Reference: paper PMC9412362, “Design, Synthesis, and Characterization of Novel Coordination Compounds of Benzimidazole Derivatives with Cadmium” (Pharmaceutics, 2022)
In brackets after ≈: the same amount, converted by molar mass. Read-outs that look alike come from different tables or passages of the source.

Tests used:
[1] = tested on: T98G cells; assay: MTT cytotoxicity assay, glioblastoma T98G; assay type: cell-based, human; settings: Homo sapiens, MTT assay after 24 h of incubation, read-out: IC50 ± SD, T98G
Method: (§1) Samples of complexes (about 20 mg) were digested in a concentrated mixture of 36% HCl (1 mL) and 65% HNO3 (6 mL). The contents of Cd (II) in the solid complexes were determined with an F-AAS spectrometer (Analytik Jena, contraAA 300, Jena, Germany) with a continuous source of light and using an air/acetylene flame (Analytik Jena, contraAA 300). Absorbances were measured at the analytical spectral lines at 228.8 nm for Cd (II). The limit of quantification was 0.004 mg/L for Cd (II). The solid samples were decomposed using an Anton Paar Multiwave 3000 (Graz, Austria) closed-system instrument. Mineralization was carried out for 45 min at 240 °C under a pressure of 60 bar. The contents of carbon, hydrogen, and nitrogen were determined with an instrument from Vario Micro Company Elementar Analysensysteme GmbH (Langenselbold, Germany). FTIR spectra were recorded with an IR Tracer-100 Schimadzu Spectrometer (4000–600 cm^−1 with an accuracy of recording of 1 cm^−1, Kyoto, Japan) using KBr pellets. The thermal analyses were carried out with a Netzsch STA 449 F1 Jupiter thermoanalyzer (Netzsch-Geratebau GmbH, Selb, Germany) coupled with a Netzsch Aeolos Quadro QMS 403 mass spectrometer (Netzsch-Geratebau GmbH, Selb, Germany). The samples were heated up to 1000 °C in corundum crucibles with a heating rate of 10 °C/min in an atmosphere of synthetic air (20% O2, 80% N2). The cytotoxic effects of the compounds were evaluated using glioblastoma (T98G), neuroblastoma (SK-N-AS), and lung adenocarcinoma (A549) cell lines and normal human skin fibroblasts (CCD-1059Sk). T98G and SK-N-AS cells were cultured in high-glucose DMEM and A549 cells were cultured in DMEM/F12, while CCD-1059Sk cells were cultured in MEM. All media were supplemented with 10% (FBS), 100 U/mL of penicillin, and […] of streptomycin (PenStrep). Cells were incubated at 37 °C in a humidified atmosphere of 5% CO2. Stock solutions were prepared by dissolving the compounds in sterile dimethyl sulfoxide (DMSO) to obtain a concentration of 50 mg/mL. The cells were seeded into sterile 96-well plates (Nunc) at a density of 1 × 10^5 cells/mL. After 24 h of incubation, the medium was removed from each well, and then the cells were incubated for the next 24 h with different concentrations of the tested compounds (1–100 µg/mL) in their respective media containing 2% FBS. The cytotoxicity of the compounds was evaluated using an MTT assay, which was based on the conversion of 3-(4,5-dimethylthiazol-2-yl)-2,5-diphenyltetrazolium bromide (MTT) into dark-blue formazan crystals. Briefly, after 24 h of incubation of the cells with varying concentrations of the tested compounds, all culture media were removed from the plates. The cells were washed with PBS, and then 100 µL of medium containing 10% MTT solution (5 mg/mL) was added to each well. After 3 h of incubation, 100 µL (per well) of 10% SDS buffer solution was added to solubilize the formazan crystals. After overnight incubation, the absorbance was measured at 570 nm using a microplate reader (Epoch, BioTek Instruments). Experiments were repeated twice, and the measurements in each experiment were run in triplicate. The viability of the investigated cells was expressed as the percentage of the viability of the untreated cells, and the results were transformed into IC50 values (expressed as mean ± SD). The complexes were screened for antibacterial and antifungal activity by using the micro-dilution broth method with Mueller–Hinton broth for the growth of bacteria or Mueller–Hinton broth with 2% glucose for the growth of fungi. […]

[2] = tested on: SK-N-AS cells; assay: MTT cytotoxicity assay, neuroblastoma SK-N-AS; assay type: cell-based, human; settings: MTT assay after 24 h of incubation, read-out: IC50 ± SD, SK-N-AS
Method: as §1

[3] = tested on: A549 cells; assay: MTT cytotoxicity assay, lung adenocarcinoma A549; assay type: cell-based, human; settings: Homo sapiens; lung carcinoma A549, MTT assay after 24 h of incubation; read-out: IC50 ± SD, A549
Method: as §1

[4] = tested on: CCD-1059Sk cells; assay: MTT cytotoxicity assay, normal human skin fibroblasts CCD-1059Sk; assay type: cell-based; settings: normal human fibroblasts CCD-1059Sk, MTT assay after 24 h of incubation; read-out: IC50 ± SD, CCD-1059-Sk
Method: as §1

[5] = tested on: S. aureus ATCC 25923; assay: MIC, micro-dilution broth method; assay type: cell-based, Staphylococcus aureus; settings: Staphylococcus aureus
Method: as §1

[6] = tested on: S. epidermidis ATCC 12228; assay: MIC, micro-dilution broth method; assay type: cell-based, Staphylococcus epidermidis; settings: Staphylococcus epidermidis
Method: as §1

[7] = tested on: M. luteus ATCC 10240; assay: MIC, micro-dilution broth method; assay type: cell-based, Micrococcus luteus; settings: Micrococcus luteus
Method: as §1

[8] = tested on: E. faecalis ATCC 29212; assay: MIC, micro-dilution broth method; assay type: cell-based, Enterococcus faecalis; settings: Enterococcus faecalis
Method: as §1

[9] = tested on: B. subtilis ATCC 6633; assay: MIC, micro-dilution broth method; assay type: cell-based, Bacillus subtilis; settings: Bacillus subtilis
Method: as §1

[10] = tested on: B. cereus ATCC 10876; assay: MIC, micro-dilution broth method; assay type: cell-based, Bacillus cereus; settings: Bacillus cereus
Method: as §1

[11] = tested on: S. typhimurium ATCC 14028; assay: MIC, micro-dilution broth method; assay type: cell-based, Salmonella Typhimurium; settings: Salmonella enterica, Gram-negative bacteria
Method: as §1

[12] = tested on: E. coli ATCC 25922; assay: MIC, micro-dilution broth method; assay type: cell-based, Escherichia coli; settings: Escherichia coli, ATCC25922, Gram-negative bacteria
Method: as §1

[13] = tested on: P. mirabilis ATCC 12453; assay: MIC, micro-dilution broth method; assay type: cell-based, Proteus mirabilis; settings: Proteus mirabilis, ATCC12453, Gram-negative bacteria
Method: as §1

[14] = tested on: K. pneumoniae ATCC 13883; assay: MIC, micro-dilution broth method; assay type: cell-based, Klebsiella pneumoniae; settings: Klebsiella pneumoniae, ATCC13883, Gram-negative bacteria
Method: as §1

[15] = tested on: P. aeruginosa ATCC 9027; assay: MIC, micro-dilution broth method; assay type: cell-based, Pseudomonas aeruginosa; settings: Pseudomonas aeruginosa, ATCC9027, Gram-negative bacteria
Method: as §1

[16] = tested on: C. glabrata ATCC 2091; assay: MIC, micro-dilution broth method; assay type: cell-based
Method: as §1

[17] = tested on: C. albicans ATCC 102231; assay: MIC, micro-dilution broth method; assay type: cell-based, Candida albicans
Method: as §1

[18] = tested on: C. parapsilosis ATCC 22019; assay: MIC, micro-dilution broth method; assay type: cell-based, Candida parapsilosis; settings: Yeasts, micro-dilution broth with 2% glucose
Method: as §1

[19] = Yeasts, micro-dilution broth with 2% glucose

COc1cc([C@@H]2c3cc4c(cc3[C@@H](O[C@@H]3O[C@@H]5CO[C@@H](C)O[C@H]5[C@H](O)[C@H]3O)[C@H]3COC(=O)[C@H]23)OCO4)cc(OC)c1O [Etoposide, reference compound]
IC50 [1]: > 170 µM | IC50 ([2]; Homo sapiens, SK-N-AS, 24 h): 115 µM | IC50 [2]: 115 ± 3.5 µM | IC50 [3]: > 170 µM | IC50 [4]: > 170 µM

c1cc(-c2nc3ccncc3[nH]2)ccn1 [L1]
IC50 [1]: 210 ± 12 µM | IC50 ([2]; Homo sapiens, SK-N-AS, 24 h): > 509 µM | IC50 [3]: > 509 µM | IC50 [4]: > 509 µM | MIC ([5]; ATCC25923, Gram-positive bacteria, micro-dilution broth, read-out: MIC, S. aureus ATCC 25923): > 1000 µg/mL | MIC ([6]; ATCC12228, Gram-positive bacteria, micro-dilution broth, read-out: MIC, S. epidermidis ATCC 12228): > 1000 µg/mL | MIC ([7]; ATCC10240, Gram-positive bacteria, micro-dilution broth, read-out: MIC, M. luteus ATCC 10240): 500 µg/mL (≈ 2550 µM) | MIC ([8]; ATCC29212, Gram-positive bacteria, micro-dilution broth, read-out: MIC, E. faecalis ATCC 29212): > 1000 µg/mL | MIC ([9]; ATCC6633, Gram-positive bacteria, micro-dilution broth, read-out: MIC, B. subtilis ATCC 6633): > 1000 µg/mL | MIC ([10]; ATCC10876, Gram-positive bacteria, micro-dilution broth, read-out: MIC, B. cereus ATCC 10876): > 1000 µg/mL | MIC [11]: > 1000 µg/mL | MIC [12]: > 1000 µg/mL | MIC [13]: > 1000 µg/mL | MIC [14]: > 1000 µg/mL | MIC [15]: > 1000 µg/mL | MIC ([16]; Nakaseomyces glabratus, ATCC2091, read-out: MIC, C. glabrata ATCC 2091): > 1000 µg/mL | MIC ([17]; Candida albicans, ATCC102231, read-out: MIC, C. albicans ATCC 102231): > 1000 µg/mL | MIC ([18]; Lodderomyces parapsilosis, ATCC22019): > 1000 µg/mL

C[C@@H]1[C@H](O)[C@@H](C)/C=C/C=C/CC/C=C/C=C/C=C/C=C/C(O[C@H]2O[C@H](C)[C@@H](O)[C@H](N)[C@@H]2O)CC2O[C@](O)(CC(O)C(O)CCC(O)CC(O)CC(O)CC(=O)O[C@H]1C)CC(O)C2C(=O)O (some centres unmarked) [Nys, nystatin, reference compound]
MIC, C. glabrata ATCC 2091 [16, 19]: 0.48 µg/mL (≈ 0.518 µM) | MIC, C. albicans ATCC 102231 [17, 19]: 0.24 µg/mL (≈ 0.259 µM) | MIC, C. parapsilosis ATCC 22019 [18]: 0.24 µg/mL (≈ 0.259 µM)

CN[C@H](CC(C)C)C(=O)N[C@H]1C(=O)N[C@@H](CC(N)=O)C(=O)N[C@H]2C(=O)N[C@H]3C(=O)N[C@H](C(=O)N[C@H](C(=O)O)c4cc(O)cc(O)c4-c4cc3ccc4O)[C@H](O)c3ccc(c(Cl)c3)Oc3cc2cc(c3O[C@@H]2O[C@H](CO)[C@@H](O)[C@H](O)[C@H]2O[C@H]2C[C@](C)(N)[C@H](O)[C@H](C)O2)Oc2ccc(cc2Cl)[C@H]1O [Van, Vancomycin, reference compound]
MIC ([5]; ATCC25923, read-out: MIC, S. aureus ATCC 25923): 0.98 µg/mL (≈ 0.676 µM) | MIC ([6]; ATCC12228, read-out: MIC, S. epidermidis ATCC 12228): 0.98 µg/mL (≈ 0.676 µM) | MIC ([7]; ATCC10240, read-out: MIC, M. luteus ATCC 10240): 0.12 µg/mL (≈ 0.0828 µM) | MIC ([8]; ATCC29212, read-out: MIC, E. faecalis ATCC 29212): 1.95 µg/mL (≈ 1.35 µM) | MIC ([9]; ATCC6633, read-out: MIC, B. subtilis ATCC 6633): 0.24 µg/mL (≈ 0.166 µM) | MIC ([10]; ATCC10876, read-out: MIC, B. cereus ATCC 10876): 0.98 µg/mL (≈ 0.676 µM)
